Assay results published in article PMC6384738, “Structure-Function Studies of Polymyxin B Lipononapeptides” (Molecules, 2019).
≈ marks a conversion by molar mass, not a printed value. *1 amine or outer side, *2 acyl side, *3 side chain or, on linkers, in order; H or OH if unused. Where a SMILES comes first, the peptide text is derived from it. Bridges are numbered along the chain shown (N, C = ends). [ ]: non-standard residue; d: D form. The star is where a group is joined. Butanoyl(4-OPh) = O=C(CCCOc1ccccc1)*; Cit = NC(=O)NCCC[C@H](N)C(=O)O; NH(2-ClPh) = Clc1ccccc1N*; Octanoyl = CCCCCCCC(=O)*; Orn = NCCC[C@H](N)C(=O)O; Dab = NCC[C@H](N)C(=O)O; CO = O=C([*:1])[*:2]

Legend:
[1] = in vitro; conditions: human
Description: (§1) All compounds synthesised in this study were assessed for their minimum inhibitory concentrations (MIC, mg/L) by broth microdilution assay against five antibiotic-sensitive and resistant ATCC reference strains covering the Gram-negative ESKAPE pathogens (Escherichia coli, Klebsiella pneumoniae, A. baumannii, and P. aeruginosa) (Table 1, Table 2 and Table 3). Staphylococcus aureus was also included as a representative Gram-positive bacterial strain. […] Polymyxin B 1, colistin 2, vancomycin and gentamicin were used as positive inhibitor comparator compounds. Compounds were counter-screened against human proximal tubular epithelial cells (HK-2), using LDH release as a general indicator of cellular toxicity.
Cytotoxicity to human kidney proximal tubular epithelial cell line, HK-2 (ATCC CRL-2190, sourced from ATCC; Manassas, VA, USA) was determined using the LDH assay as previously described. In brief, HK-2 cells were seeded as 2000 cells/well in black-walled clear bottom 384-well tissue culture treated plates (Corning, catalogue No. 3712) in DMEM/F12 medium (Gibco® 10565-042) containing 10% of Fetal Bovine Serum (FBS, Gibco® 10099-141) and incubated for 24 h at 37 °C, 5% CO2. Compounds were then added into each well with a concentration series from 300 µM to 2.3 µM in 2-fold dilutions. Colistin and polymyxin B were used as controls and tested at a final concentration range of 1 mM to 7.8 µM. The cells were incubated with the compounds for 24 h at 37 °C, 5% CO2. After the incubation, 5 µL of culture medium was added to 45 µL of LDH assay buffer (Biovision, K313-500) and incubated for 30 min at room temperature. The absorbance (ABS) was then read at 450 nm using a Polar Star Omega plate reader. The data was analysed by Prism 6 software (GraphPad Software, La Jolla, CA, USA). Results were calculated using the following equation: cytotoxicity %= (ABSsamples − ABSuntreated/ABS1%Triton X-100 − ABSuntreated) × 100.

[2] = test system: K. pneumoniae ATCC 13833; experiment: microbe, parasite or virus in culture
Description: as §1

[3] = test system: S. aureus ATCC 25923; experiment: microbe, parasite or virus in culture
Description: as §1

[4] = test system: P. aeruginosa ATTC 27853; experiment: microbe, parasite or virus in culture
Description: as §1

[5] = test system: E. coli ATCC 25922; experiment: microbe, parasite or virus in culture
Description: as §1

[6] = test system: A. baumannii ATCC 19606; experiment: microbe, parasite or virus in culture
Description: as §1

[7] = test system: K. pneumoniae BAA 2146; experiment: microbe, parasite or virus in culture
Description: as §1

[8] = test system: K. pneumoniae ATCC 700603; experiment: microbe, parasite or virus in culture
Description: as §1

Row | Structure (SMILES) | CC50 at 24 h [1] [µM] | MIC K. pneumoniae ATCC 13833 ([2]; ATCC 13833, 18 h) [mg/L] | MIC S. aureus ATCC 25923 ([3]; ATCC 25923, 18 h) [mg/L] | MIC P. aeruginosa ATTC 27853 ([4]; ATTC 27853, 18 h) [mg/L] | MIC E. coli ATCC 25922 ([5]; ATCC 25922, 18 h) [mg/L] | MIC A. baumannii ATCC 19606 ([6]; ATCC 19606, 18 h) [mg/L] | MIC K. pneumoniae BAA 2146 ([7]; BAA 2146, 18 h) [mg/L] | MIC K. pneumoniae ATCC 700603 ([8]; ATCC 700603, 18 h) [mg/L] | MIC K. pneumoniae ATCC 13833 ([2]; broth microdilution, 18 h) [mg/L] | MIC S. aureus ATCC 25923 ([3]; Gram-positive strain, broth microdilution, 18 h) [mg/L] | MIC P. aeruginosa ATTC 27853 ([4]; broth microdilution, 18 h) [mg/L] | MIC E. coli ATCC 25922 ([5]; broth microdilution, 18 h, 37 °C) [mg/L] | MIC A. baumannii ATCC 19606 ([6]; broth microdilution, 18 h) [mg/L] | MIC K. pneumoniae BAA 2146 ([7]; NDM-1 positive strain, broth microdilution, 18 h) [mg/L] | MIC K. pneumoniae ATCC 700603 ([8]; ESBL strain, broth microdilution, 18 h) [mg/L]
1 | CCCCCCCC(=O)N[C@H](C(=O)N[C@@H](CCCCN)C(=O)N[C@H]1CCNC(=O)[C@H]([C@@H](C)O)NC(=O)[C@H](CCN)NC(=O)[C@H](CCN)NC(=O)[C@H](CC(C)C)NC(=O)[C@@H](Cc2ccccc2)NC(=O)[C@H](CCN)NC1=O)[C@@H](C)O [Compound 42] (Octanoyl-TK[Dab][Dab][dF]L[Dab][Dab]T; lactam 3-C) | > 300 | 16 (≈ 14.3 µM) | >32 | 4 (≈ 3.58 µM) | 4 (≈ 3.58 µM) | 32 (≈ 28.6 µM) | 8 (≈ 7.16 µM) | 16 (≈ 14.3 µM) | – | – | – | – | – | – | –
2 | CCCCCCCC(=O)N[C@H](C(=O)N[C@@H](CCCNC(N)=O)C(=O)N[C@H]1CCNC(=O)[C@H]([C@@H](C)O)NC(=O)[C@H](CCN)NC(=O)[C@H](CCN)NC(=O)[C@H](CC(C)C)NC(=O)[C@@H](Cc2ccccc2)NC(=O)[C@H](CCN)NC1=O)[C@@H](C)O [Compound 44] (Octanoyl-T[Cit][Dab][Dab][dF]L[Dab][Dab]T; lactam 3-C) | > 300 | >32 | >32 | >32 | 32 (≈ 27.9 µM) | >32 | 32 (≈ 27.9 µM) | >32 | – | – | – | – | – | – | –
3 | CC(C)C[C@@H]1NC(=O)[C@@H](Cc2ccccc2)NC(=O)[C@H](CCN)NC(=O)[C@@H](NC(=O)[C@H](CCN)NC(=O)[C@@H](NC(=O)Nc2ccccc2Cl)[C@@H](C)O)CCNC(=O)[C@H]([C@@H](C)O)NC(=O)[C@H](CCN)NC(=O)[C@H](CCN)NC1=O [Compound 15] ({NH(2-ClPh)-CO}-T[Dab][Dab][Dab][dF]L[Dab][Dab]T; lactam 3-C) | 206 | – | – | – | – | – | – | – | >32 | >32 | 1 (≈ 0.895 µM) | 32 (≈ 28.7 µM) | >32 | 32 (≈ 28.7 µM) | 32 (≈ 28.7 µM)
4 | CCCCCCCC(=O)N[C@H](C(=O)N[C@@H](CC(N)=O)C(=O)N[C@H]1CCNC(=O)[C@H]([C@@H](C)O)NC(=O)[C@H](CCN)NC(=O)[C@H](CCN)NC(=O)[C@H](CC(C)C)NC(=O)[C@@H](Cc2ccccc2)NC(=O)[C@H](CCN)NC1=O)[C@@H](C)O [Compound 38] (Octanoyl-TN[Dab][Dab][dF]L[Dab][Dab]T; lactam 3-C) | 284 | >32 | >32 | >32 | 32 (≈ 29 µM) | >32 | >32 | >32 | – | – | – | – | – | – | –
5 | CCCCCCCC(=O)N[C@H](C(=O)N[C@@H](CCN)C(=O)N[C@H]1CCCNC(=O)[C@H]([C@@H](C)O)NC(=O)[C@H](CCN)NC(=O)[C@H](CCN)NC(=O)[C@H](CC(C)C)NC(=O)[C@@H](Cc2ccccc2)NC(=O)[C@H](CCN)NC1=O)[C@@H](C)O [Compound 17] (Octanoyl-T[Dab][Orn][Dab][dF]L[Dab][Dab]T; lactam 3-C) | 88 | 32 (≈ 29 µM) | >32 | 2 (≈ 1.81 µM) | 2 (≈ 1.81 µM) | >32 | 16 (≈ 14.5 µM) | 16 (≈ 14.5 µM) | – | – | – | – | – | – | –
6 | CC(C)C[C@@H]1NC(=O)[C@@H](Cc2ccccc2)NC(=O)[C@H](CCN)NC(=O)[C@@H](NC(=O)CNC(=O)[C@@H](NC(=O)CCCOc2ccccc2)[C@@H](C)O)CCNC(=O)[C@H]([C@@H](C)O)NC(=O)[C@H](CCN)NC(=O)[C@H](CCN)NC1=O [Compound 51] ({Butanoyl(4-OPh)}-TG[Dab][Dab][dF]L[Dab][Dab]T; lactam 3-C) | > 300 | >32 | >32 | 8 (≈ 7.39 µM) | 2 (≈ 1.85 µM) | 16 (≈ 14.8 µM) | 4 (≈ 3.7 µM) | 16 (≈ 14.8 µM) | – | – | – | – | – | – | –
